Several values for one entry are separate records, joined by “and”; a condition that tells them apart may be missing. Equal values may be shown once.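 Step 1: Grow cells in 96-well plates. Step 2: Expose to compound for 48 hours at 5 concentrations. Step 3: Interpolate endpoints linearly; if unreached, use highest concentration. GI50 marks 50% less growth. TGI: total growth inhibition.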
Tests used:
Assay in all cases: NCI tumour cell line growth inhibition, 48 h
[1] = test system: SK-MEL-5 melanoma
[2] = test system: UACC-62 melanoma
[3] = test system: HL-60(TB) leukemia
[4] = test system: DU-145 prostate
[5] = test system: SK-MEL-2 melanoma
[6] = test system: OVCAR-5 ovarian
[7] = test system: NCI-H522 lung
[8] = test system: MDA-MB-231 breast
[9] = test system: NCI-H460 lung
[10] = test system: MDA-MB-435

Structure (SMILES)	TGI [1]	TGI [2]	TGI [3]	TGI [4]	TGI [5]	TGI [6]	TGI [7]	TGI [8]	TGI [9]	TGI [10]	GI50 [1]	GI50 [2]	GI50 [3]	GI50 [4]	GI50 [5]	GI50 [6]	GI50 [7]	GI50 [8]	GI50 [9]	GI50 [10]
COc1ccc(-c2cc(=O)c3c(OC)c(OC)c(OC)cc3o2)cc1	43.3 µM	> 100 µM	> 100 µM	> 100 µM	56 µM	> 100 µM	85.3 µM	> 100 µM	81.4 µM	> 100 µM										
COc1cc2c(c(O)c1Br)C(=O)c1c(O)cc(C[C@H](C)O)cc1[C@H]2[C@H]1c2cc(C[C@H](C)O)cc(O)c2C(=O)c2c1cc(OC)c(Br)c2O	16 µM and 28.5 µM	13.7 µM and 90.7 µM	28 µM and 48.5 µM	67.5 µM and > 100 µM	19.6 µM and 44 µM	27.4 µM and 46.5 µM	18.9 µM and 78.7 µM	21.7 µM and 34.8 µM	21.4 µM and 19.4 µM	36.1 µM and 37.6 µM	7.44 µM and 15 µM	2.47 µM and 17.5 µM	3.28 µM and 17.4 µM	4.8 µM and 23.1 µM	6.37 µM and 18.1 µM	11.1 µM and 17.1 µM	8.02 µM and 25.7 µM	3.76 µM and 14.1 µM	2.76 µM and 5.27 µM	5.76 µM and 13.4 µM
CCN(CC)CCOc1ccc(/C(=C(\Cl)c2ccccc2)c2ccccc2)cc1	1.5 µM and 2.88 µM	2.33 µM and 4.88 µM	7.77 µM and 6.16 µM	13.3 µM and 19.2 µM	10.4 µM and 3.7 µM	9.95 µM and 15.2 µM	10 µM and 3.02 µM	5.16 µM and 4.49 µM	5.32 µM and 3.43 µM	5.78 µM and 7.08 µM	0.808 µM and 1.55 µM	1.04 µM and 2.15 µM	2.1 µM and 3.13 µM	6.79 µM and 5.62 µM	3.26 µM and 1.64 µM	3.42 µM and 3.33 µM	3.09 µM and 1.47 µM	1.37 µM and 2.13 µM	1.72 µM and 1.78 µM	1.54 µM and 2.2 µM
CC[CH2][Sn]([CH2]CC)([O]C(=O)c1cccnc1SC)[O][Sn]([CH2]CC)([CH2]CC)[O]C(=O)c1cccnc1SC	3.26 µM	0.809 µM	4.24 µM	7.11 µM	0.823 µM	3.64 µM	0.0784 µM	2.76 µM	4.94 µM	2.89 µM	0.898 µM	0.343 µM	0.26 µM	2.37 µM	0.299 µM	2.09 µM	< 0.0196 µM	1.34 µM	1.99 µM	1.54 µM
CC/C(=C(/c1ccc(O)cc1)c1ccc(OCCNC)cc1)c1ccccc1	3.09 µM	3.54 µM	4.55 µM	6.81 µM	3.77 µM	6.25 µM	3.68 µM	3.09 µM	3.37 µM	2.98 µM	1.67 µM	1.8 µM	2.03 µM	2.63 µM	2.08 µM	2.37 µM	1.87 µM	1.39 µM	1.84 µM	1.54 µM
O=C1Nc2c(C(F)(F)F)cccc2[C@]1(c1ccc(O)cc1)c1ccc(OC(F)(F)F)cc1	24.6 µM	25 µM	32.5 µM	23.9 µM	28.2 µM	24.4 µM	28.5 µM	26.2 µM	28.8 µM	26.6 µM	11.9 µM	11.9 µM	13.7 µM	11.7 µM	12.6 µM	12 µM	12.9 µM	13 µM	8.43 µM	13.6 µM

Source: PubChem BioAssay (NCI)
